Test results reported in patent US11730712B2, “Functionalized long-chain hydrocarbon mono- and di-carboxylic acids and derivatives thereof, and their use for the prevention or treatment of disease” (ESPERVITA THERAPEUTICS, INC., priority 2021, dated 2023).
Read-outs that look alike come from different tables or passages of the source.

How the values were obtained:
[1] = tested on: C57BL6J mice on high fat high fructose diet; assay: Hepatic de novo lipogenesis (14C-glucose incorporation) in murine model of NASH; type: in vivo, mouse; settings: for inhibition at 10 mg/kg / inhibition at 30 mg/kg / inhibition at 60 mg/kg: Mus musculus
Procedure: Experimental Protocol. FIG. 17A describes the study protocol. Mice were dosed daily for 7 days with a single dose of either Compound I-32 or Compound I-1 at a dose of 10 mg/kg, 30 mg/kg or 60 mg/kg. On the 8th day of the experiment mice receive final dose of Compound I-32 or Compound I-1, followed one hour later by an I.P. bolus of 14-C Glucose.
C57BL6J (8 weeks of age) were obtained for the Jackson Laboratory and fed a normal chow diet upon arrival. At ˜10 weeks of age, mice were given a diet containing high fat and high fructose (Rodent Diet with 40 kcal % Fat (Mostly Palm Oil), 20 kcal % fructose, and 0.02% cholesterol, obtained from Research Diets, Product Code: D19101102) and housed at thermoneutral conditions (26-29° C.). […] On the morning of day 8, animals received a final dose and after 1 hour […] (PerkinElmer) was administered at a concentration of 12 μCi per mouse in a volume of 0.1 ml in 0.9% saline I.P. One hour after ^14C-glucose was given, animals were anesthetized by I.P. injection of Ketamine/Xylazine (150 mg/12.4 mg/kg, respectively). Blood was drawn through cardiac puncture; the liver was removed, and a sample was from the left lobe and frozen in liquid nitrogen. Liver tissue was chipped on dry-ice and the weight of the chip weight recorded (30-50 mg of tissue). Liver tissue was homogenized in 1 ml of 2:1 chloroform:methanol using a bead homogenizer at 5000 rpm for 2×12 seconds. Samples were incubated with gentle shaking at 4° C. for 2 hours, vortexed for 2×12 seconds, and then centrifuge at 7000 rpm for 10 minutes at 4° C. The supernatant was transferred to a 1.5 ml Eppendorf and 200 μl of 0.9% saline was added. Samples were vortexed for 2×12 seconds and centrifuged at 3000 rpm for 10 minutes at 4° C. 200 μl of the lower organic phase was removed and added to 5 ml of scintillation fluid. The amount radioactivity in the sample was measured by scintillation counting. The number of disintegrations per minute (DPM) were determined over a 5-minute period and normalized to the amount of liver tissue. 5-10 μl of plasma obtained at termination was also counted and lipid/gram tissue counts were normalized to plasma counts. Statistical comparisons were carried out using a one-way ANOVA followed by Dunnett's post hoc test using GraphPad Prism 8 software. A p-value of less than or equal to 0.05 was used as the criterion of significance.

[2] = tested on: human hematopoietic stem and progenitor cells (CD45+CD34+); assay: Megakaryopoiesis and platelet production in cultured hematopoietic stem and progenitor cells; type: cell-based; settings: 30 μM, added day 6
Procedure: Materials and Methods. Hematopoietic stem and progenitor cells, identified as viable CD45+CD34+ cells, were isolated from peripheral blood of healthy donors by a method known in the art (see Ivetic N. Nazi I, Karim N et al. Producing megakaryocytes from a human peripheral blood source. Transfusion 2016; 56:1066-74). These isolated cells were then analyzed for purity before being expanded for four days using a commercial supplement to increase their cell population. After expansion, the cells were analyzed for purity, washed, and stimulated with a saturating concentration of thrombopoietin (20 ng/mL) and stem cell factor (50 ng/mL) to begin megakaryopoiesis. Compound I-32 and Compound I-1 were added at this timepoint at a concentration of 30 μM. The cells were then cultured for 8 days to develop into megakaryocytes and analyzed via flow cytometry to assess their number, maturity, and platelet count as defined by CD41a, CD42b and Calcein-AM expression. In addition, Compound I-32 and Compound I-1 were added to cells during the later stages of development (day 6) to assess their impact on maturation. ABT-737 ([…]) was used as a positive control and a DMSO vehicle control (<0.15% v/v) was the negative control. […]
Statistical analysis. Statistical analyses were carried out by comparing effects on measured parameters in comparison to vehicle control. […]

[3] = 10 mg/kg, read-out: % change from vehicle control, hepatic de novo lipogenesis (inhibition)
[4] = 30 mg/kg, read-out: % change from vehicle control, hepatic de novo lipogenesis (inhibition)
[5] = 60 mg/kg, read-out: % change from vehicle control, hepatic de novo lipogenesis (inhibition)

Row | SMILES | % change from vehicle control, hepatic de novo lipogenesis (inhibition) ([1]; 30 mg/kg) [%] | % change from vehicle control, hepatic de novo lipogenesis (inhibition) ([1]; 60 mg/kg) [%] | inhibition at 10 mg/kg [1, 3] [%] | inhibition at 30 mg/kg [1, 4] [%] | inhibition at 60 mg/kg [1, 5] [%] | inhibition of megakaryopoiesis/platelet parameters after addition on day 6 of culture [2] | % change from vehicle control, hepatic de novo lipogenesis (inhibition) ([1]; 10 mg/kg) [%] | inhibition at 10 mg/kg ([1]; 10 mg/kg, 30 mg/kg and 100 mg/kg, all three doses tested (as printed in text), read-out: inhibition of liver lipogenesis) [%]
1 | CC(C)(CCCCc1ccc(CCCCC(C)(C)C(=O)O)cc1)C(=O)O [Compound I-1, 6-[4-(5-carboxy-5-methylhexyl)-phenyl]-2,2-dimethylhexanoic acid] | 55.65 | 68.96 | 17.8 | 56 | 69 | no inhibition detected |  | 
2 | CC(C)(CCCCc1cccc(CCCCC(C)(C)C(=O)O)c1)C(=O)O [Compound I-32, 6-[3-(5-carboxy-5-methylhexyl)-phenyl]-2,2-dimethylhexanoic acid] | 37.42 | 52.90 | 49 | 37 | 53 | no inhibition detected | 48.79 | ~50
